Measured values from publication PMC7180728, “Novel Anthraquinone Compounds Inhibit Colon Cancer Cell Proliferation via the Reactive Oxygen Species/JNK Pathway” (Molecules, 2020).
Converted amounts (≈) assume the structure as drawn. Like-named read-outs stand apart in the source and are kept apart here. Residues, ends and D or L forms follow the SMILES beside them. *: point of attachment. Cbz = O=C(OCc1ccccc1)*; CH2F = FC*

Legend:
QBC939 = assay: MTT cell proliferation assay, QBC939; assay type: cell-based; settings: Homo sapiens, QBC939 cholangiocarcinoma, 48 h
Method: (§1) The effects of the synthesized amide anthraquinone derivatives on the proliferative activity of eight human cancerous cell lines (EC9706, MCF-7, SGC-7901, HepG2, QBC939, HeLa, HCT116 and SW480) in addition to two normal human cell lines (colorectal FHC and liver HL7702) were evaluated using the standard MTT assay.
(§2) The human esophageal cancer cell line EC9706 was obtained from Cancer Hospital and Institute by Prof. Ming Rong Wang, Chinese Academy Medical of Sciences. The human colorectal carcinoma cell lines HCT116 and SW480, hepatoma cell line HepG2, cervical carcinoma cell line HeLa, breast cancer cell line MCF-7, gastric cancer cell line SGC-7901, cholangiocarcinoma cell line QBC939, normal fetal colon cell line FHC and liver cell line HL-7702 were obtained from the Cell Bank of the Shanghai Chinese Academy of Sciences. All cells were cultured in RPMI 1640 medium containing 100 U/mL penicillin and streptomycin and 10% fetal bovine serum and maintained at 37°C under a 5% CO2 atmosphere.
(§3) We analyzed the inhibitory effects of eight anthraquinone-amino acid derivatives on the proliferation of eight tumor cell lines and two normal cell lines in vitro using MTT assays. Cells were added to a 96-well plate with (5,000 cells per well in 100 µL RPMI-1640 medium). Cells were treated with different concentrations (10–100 μg/mL) of 8a–8h for 48 h and then incubated with 20 μL MTT (5 mg/mL) for another 4 h at 37°C. DMSO (150 μL) was then added to each well to dissolve the formazan crystals. The absorbance of each well was read at 490 nm on a microtiter plate ELISA reader. The mean values were obtained from a minimum of three parallel experiments. IC50 values were calculated.

HCT116 = assay: MTT cell proliferation assay, HCT116; assay type: cell-based, human; settings: for IC50: Homo sapiens, HCT-116, HCT116 colon cancer, 48 h
Method: as §1, §2, §3

HL-7702 = assay: MTT cell proliferation assay, normal liver cells HL-7702; assay type: cell-based; settings: L02, HL-7702 normal human hepatocyte, 48 h
Method: as §1, §2, §3

HeLa = assay: MTT cell proliferation assay, HeLa; assay type: cell-based; settings: Homo sapiens, HeLa cervical cancer, 48 h
Method: as §1, §2, §3

FHC = assay: MTT cell proliferation assay, normal colorectal cells FHC; assay type: cell-based; settings: FHC normal human colorectal mucosa, 48 h
Method: as §1, §2, §3

SW480 = assay: MTT cell proliferation assay, SW480; assay type: cell-based; settings: Homo sapiens, SW480 colon cancer, 48 h
Method: as §1, §2, §3

EC9708 = assay: MTT cell proliferation assay, EC9706 (Table 1: EC9708); assay type: cell-based; settings: Homo sapiens, EC9708 esophageal cancer, 48 h
Method: as §1, §2, §3

SGC-7901 = assay: MTT cell proliferation assay, SGC-7901; assay type: cell-based, human; settings: SGC-7901 gastric cancer
Method: as §1, §2, §3

MCF-7 = assay: MTT cell proliferation assay, MCF-7; assay type: cell-based; settings: Homo sapiens, MCF7, MCF-7 breast cancer, 48 h
Method: as §1, §2, §3

HepG2 = assay: MTT cell proliferation assay, HepG2; assay type: cell-based; settings: Homo sapiens, HepG2 liver cancer, 48 h
Method: as §1, §2, §3

[1] = parameters: method as in earlier work; settings: cell line not given; compared with 8b 27.87 μg/mL; cited from earlier work
[2] = parameters: method as in PMID 24096626; settings: on entering the bloodstream; cited from earlier work
[3] = parameters: method as in PMID 27111664, PMID 28811348; settings: background statement, no own measurement; cited from earlier work
HCT116 cells = assay: MTT cell viability with or without zVAD-FMK; assay type: cell-based, human; settings: zVAD-FMK 5 mM alone, 24 h
From the text: Caspases represent a key molecular group in the regulation of apoptosis. In caspases, there is an upstream and downstream relationship between the initiator of apoptosis and executioner. Caspase 3 is one of the key executers of apoptosis, as it is either partially or totally responsible for the proteolytic cleavage of many key proteins. For example, when caspase 9 is activated, it activates caspase 3, which ultimately triggers cell apoptosis. After detecting the expression of the corresponding Bcl-2 family proteins after 8a treatment by western blotting, we went on to detect the expression levels of PARP, caspase 9, cleaved caspase 9, caspase 3, and cleaved caspase 3 proteins. […] After 24 h of treatment with zVAD-FMK, cell viability is 93%.
Figure 7 Effect of 8a on apoptosis-related protein expression. […] PARP, caspase 3, cleaved caspase 3, caspase 9, cleaved caspase 9, Bcl-2, phosphorylated Bcl-2, Bcl-XL, phosphorylated Bcl-xL and Bax were detected by western blot analysis; β-actin was used as a loading control in each lane. Representative data of three independent experiments are shown; (C) and (D) Grayscale analysis of the relative expression of apoptosis-related proteins detected by Western blotting. […] (E) Cells were exposed to 8a (20 μg/mL) and/or zVAD-FMK ([…]) for 24 h, and cell viability was measured by MTT assay. […]

[4] = Homo sapiens, SGC-7901, 48 h, read-out: IC50

SMILES | IC50 (QBC939) | IC50 (HCT116) | IC50 (HL-7702) | IC50 (HeLa) | IC50 (FHC) | IC50 (SW480) | IC50 (EC9708) | IC50 (SGC-7901; [4]) | IC50 (SGC-7901; 48 h) | IC50 (MCF-7) | IC50 (HepG2) | proliferation of HCT116 cells (in words) (HCT116) | IC50 [1] | fraction bound to plasma proteins [2] | melting point | water solubility [3] | cell viability (HCT116 cells)
O=C1c2ccccc2C(=O)c2c1ccc(C(=O)N1CCCC1C(=O)O)c2[N+](=O)[O-] (stereo not shown) [Compound 8e] | 37.73 ± 0.23 µg/mL (≈ 95.7 µM) | 35.03 ± 0.25 µg/mL (≈ 88.8 µM) | > 1000 µg/mL | 48.82 ± 0.13 µg/mL (≈ 124 µM) | > 1000 µg/mL | 60.49 ± 0.07 µg/mL (≈ 153 µM) | 47.35 ± 0.21 µg/mL (≈ 120 µM) | 60.5 µg/mL (≈ 153 µM) | 72.31 ± 0.33 µg/mL (≈ 183 µM) | 31.31 ± 0.13 µg/mL (≈ 79.4 µM) | 49.07 ± 0.08 µg/mL (≈ 124 µM) |  |  |  |  |  | 
CC(NC(=O)c1ccc2c(c1[N+](=O)[O-])C(=O)c1ccccc1C2=O)C(=O)O (stereo not shown) [Compound 8f] | 357.52 ± 0.08 µg/mL (≈ 971 µM) | 98.43 ± 0.13 µg/mL (≈ 267 µM) | > 1000 µg/mL | 241.31 ± 0.13 µg/mL (≈ 655 µM) | > 1000 µg/mL | 155.38 ± 0.14 µg/mL (≈ 422 µM) | 257.31 ± 0.2 µg/mL (≈ 699 µM) | 165.3 ± 0.21 µg/mL (≈ 449 µM) |  | 342.19 ± 0.22 µg/mL (≈ 929 µM) | 296.42 ± 0.21 µg/mL (≈ 805 µM) | significantly inhibited |  |  |  |  | 
CC(C)C(NC(=O)c1cc(O)c2c(c1)C(=O)c1cccc(O)c1C2=O)C(=O)O (stereo not shown) [rhein valine] |  |  |  |  |  |  |  |  |  |  |  |  | 33.51 µg/mL (≈ 87.4 µM) |  |  |  | 
O=C1c2c(O)ccc(O)c2C(=O)c2c(NCCNCCO)ccc(NCCNCCO)c21 [MX, mitoxantrone] |  |  |  |  |  |  |  |  |  |  |  |  |  | > 95% |  |  | 
O=C(O)CCC(NC(=O)c1ccc2c(c1[N+](=O)[O-])C(=O)c1ccccc1C2=O)C(=O)O (stereo not shown) [Compound 8h] | 112.02 ± 0.03 µg/mL (≈ 263 µM) | 100.38 ± 0.04 µg/mL (≈ 235 µM) | > 1000 µg/mL | 334.28 ± 0.04 µg/mL (≈ 784 µM) | > 1000 µg/mL | 119.93 ± 0.03 µg/mL (≈ 281 µM) | 112.41 ± 0.03 µg/mL (≈ 264 µM) | 200.35 ± 0.05 µg/mL (≈ 470 µM) |  | 546.68 ± 0.31 µg/mL (≈ 1280 µM) | 467.74 ± 0.06 µg/mL (≈ 1100 µM) | significantly inhibited |  |  |  |  | 
O=C1c2ccccc2C(=O)c2c1ccc(C(=O)NC(Cc1ccccc1)C(=O)O)c2[N+](=O)[O-] (stereo not shown) [Compound 8c] | 34.2 ± 0.42 µg/mL (≈ 77.1 µM) | 30.12 ± 0.02 µg/mL (≈ 67.8 µM) | > 1000 µg/mL | 25.94 ± 0.22 µg/mL (≈ 58.4 µM) | > 1000 µg/mL | 39.5 ± 0.31 µg/mL (≈ 88.9 µM) | 30.24 ± 0.23 µg/mL (≈ 68 µM) | 61.6 ± 0.14 µg/mL (≈ 139 µM) |  | 28.26 ± 0.13 µg/mL (≈ 63.6 µM) | 58.34 ± 0.22 µg/mL (≈ 131 µM) |  |  |  | > 250 °C |  | 
CC(C)C(NC(=O)c1ccc2c(c1[N+](=O)[O-])C(=O)c1ccccc1C2=O)C(=O)O (stereo not shown) [Compound 8b, 1-nitro-2-acyl-anthraquinone valine] | 72.88 ± 0.16 µg/mL (≈ 184 µM) | 21 ± 0.38 µg/mL (≈ 53 µM) | > 1000 µg/mL | 27.87 ± 0.22 µg/mL (≈ 70.3 µM) | > 1000 µg/mL | 42.4 ± 0.68 µg/mL (≈ 107 µM) | 38.94 ± 0.02 µg/mL (≈ 98.2 µM) | 67.98 ± 0.18 µg/mL (≈ 172 µM) |  | 30.81 ± 0.05 µg/mL (≈ 77.7 µM) | 44 ± 0.53 µg/mL (≈ 111 µM) |  |  |  |  |  | 
O=C(O)CNC(=O)c1ccc2c(c1[N+](=O)[O-])C(=O)c1ccccc1C2=O [Compound 8d] | 36.71 ± 0.04 µg/mL (≈ 104 µM) | 27.75 ± 0.11 µg/mL (≈ 78.3 µM) | > 1000 µg/mL | 28.7 ± 0.17 µg/mL (≈ 81 µM) | > 1000 µg/mL | 43.08 ± 0.05 µg/mL (≈ 122 µM) | 41.47 ± 0.14 µg/mL (≈ 117 µM) | 60.83 ± 0.12 µg/mL (≈ 172 µM) |  | 26.87 ± 0.06 µg/mL (≈ 75.8 µM) | 40.11 ± 0.02 µg/mL (≈ 113 µM) |  |  |  |  |  | 
Cc1cc(O)c2c(c1)C(=O)c1cc(O)cc(O)c1C2=O [Emodin, emodin] |  |  |  |  |  |  |  |  |  |  |  |  |  |  |  | poor | 
CSCCC(NC(=O)c1ccc2c(c1[N+](=O)[O-])C(=O)c1ccccc1C2=O)C(=O)O (stereo not shown) [Compound 8g] | 290.94 ± 0.05 µg/mL (≈ 679 µM) | 86.49 ± 0.02 µg/mL (≈ 202 µM) | > 1000 µg/mL | 122.52 ± 0.05 µg/mL (≈ 286 µM) | > 1000 µg/mL | 158.37 ± 0.04 µg/mL (≈ 370 µM) | 300.18 ± 0.11 µg/mL (≈ 701 µM) | 235.81 ± 0.02 µg/mL (≈ 550 µM) |  | 275.52 ± 0.07 µg/mL (≈ 643 µM) | 520.52 ± 0.22 µg/mL (≈ 1210 µM) | significantly inhibited |  |  |  |  | 
COC(=O)C[C@H](NC(=O)[C@H](C)NC(=O)[C@@H](NC(=O)OCc1ccccc1)C(C)C)C(=O)CF [zVAD-FMK, reference compound] (Cbz-Val-Ala-Asp(OMe)-CH2F) |  |  |  |  |  |  |  |  |  |  |  |  |  |  |  |  | 93%
